Experimental data from patent publication US20080267948A1, “Croos-B Structure Binding Compounds” (priority 2005, published 2008).
Entries after “also recorded” stand apart in the source; their conditions may differ.

Tested on: human blood platelets
Assay: Platelet aggregation (aggregometric assay with washed platelets)
Assay type: cell-based
Settings: for platelet aggregation by compound alone: 25 or 50 μg/ml ellagic acid, hydrate
Procedure: The influence of amyloid-β(1-40) E22Q Dutch type (Aβ) peptide aggregates with cross-β structure conformation on blood platelet aggregation was tested with washed platelets in an aggregometric assay. Freshly drawn human aspirin free blood was mixed gently with citrate buffer to avoid coagulation. Blood was spinned for 15′ at 150*g at 20° C. and supernatant was collected; platelet rich plasma (PRP). […] After spinning down the platelets upon centrifugation for 15′ at 330*g at 20° C., the pellet was resuspended in HEPES-Tyrode buffer pH 6.5. Prostacyclin was added to a final concentration of 10 ng/ml, and the solution was centrifuged for 15′ at 330*g at 20° C., with a soft brake. The pellet was resuspended in HEPES-Tyrode buffer pH 7.2 in a way that the final platelet number was adjusted to 200,000/μl. Platelets were kept at 37° C. for at least 30′, before use in the assays, to ensure that they were in the resting state.
Aggregation of platelets was monitored in an aggregometer (Chrono-Log Corporation, Havertown, Pa., USA) for 15 minutes at 37° C. with a magnet stirring speed of 900 rpm. First, 270 μl of platelet solution was pipetted in the cuvettes and after 1 minute of stirring, 30 μl of preincubated (5 minutes, RT) Aβ and Hematein solution or control was added. The hematein stock was 10 mg/ml in HEPES-Tyrode buffer. The Aβ stock was 1 mg/ml. For blank readings unstirred HEPES Tyrode buffer was used. The aggregation is expressed as the percentage of the light transmission (0-100%). As a positive control, synthetic thrombin receptor activating peptide (TRAP) induced platelet aggregation was used. A control experiment was performed to study the influence of the red colour of hematein on the light transmission. For this, 4 μM TRAP was added at time 1 minute to the platelets, then hematein was added after 6 minutes of aggregation. The platelets were used for not more than 4 hours after isolation to reduce variations in sensitivity amongst subsequent measurements.
Ellagic acid was first dissolved to 100 mg/ml in DMSO, and then further diluted to 1 mg/ml in HBS buffer. Final concentrations of Aβ and ellagic acid in the aggregation assay were 50 μg/ml and 25/50 μg/ml, respectively. In addition, the influence of ellagic acid alone on platelet aggregation was tested. As a control, the influence of 0.08% DMSO on 50 μg/ml Aβ-induced platelet aggregation was analyzed. The 100% DMSO of the ellagic acid stock was diluted 2000 and 4000×, resulting in […] final DMSO concentrations in the aggregation assay.

SMILES: O=c1oc2c(O)c(O)cc3c(=O)oc4c(O)c(O)cc1c4c23 [compound 117, Ellagic acid hydrate]
- influence on Aβ induced platelet aggregation (25 and 50 μg/ml ellagic acid hydrate, 100 μg/ml Aβ): further enhances amyloid-β triggered aggregation
- platelet aggregation by compound alone (listed as ellagic acid hydrate): potent activator of platelets resulting in their aggregation; also recorded: Stimulation of platelet aggregation
- platelet aggregation by compound alone (listed as ellagic acid): strong inducer of aggregation
